Results on one molecule are retold here after patent US20240091145A1, “DRY MUCO-ADHESIVE COMPOSITIONS AND USE THEREOF” (TECHNION RESEARCH & DEVELOPMENT FOUNDATION LIMITED, priority 2021, published 2024).

For data set [1], the system named is OSCC cell line (HSC-2). The conditions noted are these: in vitro; cited from earlier work.
Data set [2] deals with SCC7 cell line. The data set is described as follows: Cell viability assay (MTT). The data set is classed as cell-based, murine. Here is the method:
Murine squamous cell carcinoma cell line, SCC7 purchased from Prof. Reinhard Zeidler, at the German Research Center for Environmental Health in Munich, were cultured in DMEM containing 10% v/v FBS and (2 mM) L-glutamine, kept at a temperature of 37° C. and in humidified atmosphere containing 5% v/v CO2 and 95% v/v air. For maintain cell growth, cells were split every 2-3 days using […] trypsin solution for detaching.
Tablets (1×3 mm) containing alginate (0.8, 1.6 mg) and liposomes (0.8 mg) in the form of layered or homogenous, either empty or DOX loaded liposomes were prepared as described above. The final concentration of DOX in each tablet was (1.68 mg mL^−1). To examine the toxicity of the tablets containing the drug on SCC7 cell line, at first cells were seeded at a uniform density of 15,000 cells per well on 96 well plates in […] DMEM medium. On the day of the experiment, medium was replaced with fresh medium containing the tablets, free DOX and in some wells empty fresh medium to serve as control. Cells were incubated for 4, 8, 12, 24, 48 and 72 hr in humidified atmosphere at 37° C. Cells viability was measured using the MTT assay. The medium was removed and (100 μl) of MTT (1 mg mL^−1) in PBS^−1 were added to each well and incubated at 37° C. for 4 hr. […] The absorbance was measured at 570 nm and 690 nm for the background absorbance. […]

Consider `COc1cccc2c1C(=O)c1c(O)c3c(c(O)c1C2=O)C[C@@](O)(C(=O)CO)C[C@@H]3O[C@H]1C[C@H](N)[C@H](O)[C@H](C)O1` [free DOX, Doxorubicin], for which the apoptosis induction result in data set [1] was “induce apoptosis through the activation of caspase-3, -8 and -9”. Also, the cell viability in data set [2] (SCC7, long times) is listed as 3-10%; in data set [2] (SCC7, short times) it was 28-40%.
